Where “and” joins values, the source holds several entries; their conditions need not be identical. Identical values can stand only once. Like-named read-outs stand apart in the source and are kept apart here.
What was measured:
[1] = system: Giant foxtail (GIFT); assay: Greenhouse test Procedure VI (Examples 59-61; Tables 58-60); type: in vivo; details: Antidote + Biocide No. 1 in furrow
Text: This procedure describes interaction among herbicide, biocide and antidote when the herbicide is incorporated in a soil cover layer and the biocide and the antidote are applied in a soil furrow containing crop seed before emergence of the crop. The soil and seeding depth were described in Procedure IV. A first container was designated as an untreated control, a second container was designated as a herbicide control, a third container was designated as a herbicide + biocide control and a fourth container as a herbicide + biocide + antidote test container. The biocide and antidote were formulated as granules. The biocide was applied to the soil furrows of the third and fourth containers at an application rate of 1.1 mg of active compound per cm of row. The antidote was applied to the soil furrow of the fourth container at an application rate of 0.37 mg of active compound per cm of row. A measured amount of the herbicide dispersed or dissolved in acetone was applied to a measured quantity of soil. The quantity of soil treated with the herbicide was thoroughly mixed to incorporate the herbicide. Samples of this soil were used to cover the seed beds of the second, third and fourth containers. For each test series, the seed bed of the first container was likewise covered by a soil layer not treated with herbicide and without biocide or antidote in the soil furrow.
The containers were then placed on a bench in a greenhouse. Watering was by subirrigation plus overhead irrigation after the plants emerged. All treatments were run in duplicate. Plant response was observed according to Procedure IV. Variations in this procedure will be noted in the examples.
The procedure used in this example involved the PPI application of biocide and safener as described in general Procedure VI above. The "primary" herbicide in this test was MON-12000 (Herbi-cide No. 1) in admixture with other herbicides designated as "co-herbicides", which included LASSO® (co-herbicide B); DUAL® (C); acetochlor (A); EPTAM® (D); butylate (E) and PURSUIT® (K).
The in-furrow treatments with blended COUNTER 15G and antidote mixtures was as described in above examples. MON-12000 and the co-herbicides were formulated in acetone and applied as tank mixtures, incorporated into Dupo silt loam soil with a rotary drum mixer. Subsamples were used to cover seeded and in-furrow treated 10.2 cm pots. Pots were placed on greenhouse benches and subirrigated. Plant responses were observed thirteen days after PPI initiation. Test results (average of two replications) are shown in Table 58, wherein giant foxtail (GIFT) was used in place of shattercane.
This test was conducted in the same manner used in Example 59. All biocide and antidote components were the same and in these tests XRD-498 (Herbicide No. 21) was the prime herbicide. Co-herbicides are shown in Table 59 together with test data.
In one other test conducted as described in the preceding examples in this series of tests, the herbicide PURSUIT® was used as the primary herbicide (in the context of this invention) together with the same insecticide and safeners as above and the co-herbicides shown in Table 60, together with test results.

[2] = system: Giant foxtail (GIFT); assay: Greenhouse test Procedure VII (same examples); type: in vivo
Text: This procedure describes interaction among herbicide, biocide and antidote when the biocide and the antidote is applied to a soil furrow containing crop seed before emergence of the crop and the herbicide is applied after emergence of the crop and weeds. The soil and planting depth was described in Procedure IV. The containers for comparison, the biocide and antidote applications to soil furrows were described in Procedure VI. In this procedure, the seed beds of the first, second, third and fourth containers are covered by soil layers not treated with herbicide. The containers were then placed on a bench in a greenhouse and subirrigated as required for the duration of the test. The herbicide, dispersed or dissolved in water containing 0.25% v/v nonionic surfactant (X-77) was applied by a track sprayer (187 L/ha) to the emerged plants of the second, third and fourth containers about five days after planting. All treatments were run in duplicate. Plant response was observed according to Procedure IV. Variations in this procedure will be noted in the examples.
In these tests (according to Procedure VII) the safeners in solution with acetone were applied in furrow to the soil, followed by COUNTER 15G granules at 227 g/305 m (8 oz./1000'). Applications were made in alternate rows in two separate 13.7 cm x 27.7 cm pans containing Dupo silt loam. Pans were seeded 1.3 cm deep, placed on benches in a greenhouse and subirrigated. BEACON was formulated in water with 0.25% v/v X-77 surfactant and applied by track sprayer at a rate of 187 L/Ha (20 gal/A). Weed species in this test were giant foxtail, shattercane and velvetleaf. The herbicide was applied five (5) days after PPI initiation and observation of test result (shown in Table 47) made eight (8) days later.
In Table 47 COUNTER 15G is abbreviated as "C" and the antidotes as "A" in the column headings which indicate the "C + A" ratios used in the tests. Control and COUNTER treatments are average of four (4) replications and COUNTER + Antidote treatments, average of 2 reps.

[3] = system: Velvetleaf (VELE); type: in vivo, Abutilon theophrasti
[4] = Herbicide No. 11 0.0044 Kg/Ha PPI
[5] = Herbicide No. 12 0.0044 Kg/Ha PPI
[6] = Herbicide No. 13 0.0011 Kg/Ha PPI
[7] = Herbicide No. 13 0.0022 Kg/Ha PPI
[8] = Herbicide No. 14 0.07 Kg/Ha PPI
[9] = Herbicide No. 16 0.07 Kg/Ha PPI, 13 days
[10] = Herbicide No. 17 0.14 Kg/Ha PPI, 13 days
[11] = Herbicide No. 18 0.04 Kg/Ha PPI, 13 days
[12] = Herbicide No. 20 1.12 Kg/Ha PPI, 13 days
[13] = Herbicide No. 22 0.28 Kg/Ha PPI, 13 days
[14] = Herbicide No. 24 0.14 Kg/Ha PPI, 13 days
[15] = Herbicide No. 25 0.14 Kg/Ha PPI, 13 days
[16] = Herbicide No. 26 2.24 Kg/Ha PPI, 13 days
[17] = Herbicide No. 28 0.04 Kg/Ha PPI, 13 days
[18] = Antidote + Biocide No. 1 in furrow, Herbicide No. 1 0.14 Kg/Ha POE, 8 days after POE
[19] = Antidote + Biocide No. 1 in furrow, Herbicide No. 4 0.17 Kg/Ha POE, 8 days after POE
[20] = Antidote + Biocide No. 1 in furrow, Herbicide No. 5 0.07 Kg/Ha POE, 8 days after POE
[21] = Antidote + Biocide No. 1 in furrow, Herbicide No. 6 0.01 Kg/Ha POE
[22] = Antidote + Biocide No. 1 in furrow, Herbicide No. 7 0.56 Kg/Ha POE, 8 days after POE
[23] = Antidote + Biocide No. 1 in furrow, Herbicide No. 9 0.009 Kg/Ha POE
[24] = Antidote + Biocide No. 1 in furrow, Herbicide No. 10 0.002 Kg/Ha POE, 8 days after POE
[25] = Antidote + Biocide No. 1 in furrow, Herbicide No. 15 0.0044 Kg/Ha POE, 8 days after POE
[26] = Antidote + Biocide No. 1 in furrow, Herbicide No. 16 0.01 Kg/Ha POE
[27] = Antidote + Biocide No. 1 in furrow, Herbicide No. 18 0.0044 Kg/Ha POE
[28] = Antidote + Biocide No. 1 in furrow, Herbicide No. 19 0.28 Kg/Ha POE
[29] = Antidote + Biocide No. 1 in furrow, Herbicide No. 21 0.14 Kg/Ha POE
[30] = Antidote + Biocide No. 1 in furrow, Herbicide No. 23 0.0006 Kg/Ha POE
[31] = Antidote 4.48 + Biocide No. 1 8.96 Kg/Ha PPI, Herb. No. 8 0.07, 5 DAP, before herbicide application
[32] = Antidote 4.48 + Biocide No. 1 8.96 Kg/Ha PPI, Herb. No. 8 0.07 POE, 13 DAP
[33] = Antidote 4.48 + Biocide No. 1 8.96 Kg/Ha PPI, Herbicide No. 7 0.28 POE, 13 days after planting
[34] = Herb. […], 5 DAP, before herbicide application
[35] = Table 14: Herbicide No. 7 (ACCENT) 0.84 Kg/Ha POE + Biocide No. 2 8.96 Kg/Ha PPI + antidote 4.48 Kg/Ha PPI, 13 days after planting, 8 days after herbicide
[36] = […], 13 days after planting, 8 days after herbicide
[37] = […], observed 10 days after herbicide application

## CC1(C)OC(c2ccco2)CN1C(=O)C(Cl)Cl (stereo not shown) [compound 1]
[1]; Herbicide No. 6 0.14 Kg/Ha PPI
  % Inhibition GIFT: 65%
[1]; [4]
  % Inhibition GIFT: 0%
[1]; [5]
  % Inhibition GIFT: 0%
[1]; [6]
  % Inhibition GIFT: 25%
[1]; [7]
  % Inhibition GIFT: 35%
[1]; [8]
  % Inhibition GIFT: 0%
[1]; [9]
  % Inhibition GIFT: 30%
[1]; [10]
  % Inhibition GIFT: 75%
[1]; [11]
  % Inhibition GIFT: 55%
[1]; [12]
  % Inhibition GIFT: 20%
[1]; [13]
  % Inhibition GIFT: 25%
[1]; [14]
  % Inhibition GIFT: 10%
[1]; [15]
  % Inhibition GIFT: 30%
[1]; [16]
  % Inhibition GIFT: 0%
[1]; [17]
  % Inhibition GIFT: 50%
[2]; [18]
  % Inhibition GIFT: 0%
[2]; [19]
  % Inhibition GIFT: 0%
[2]; [20]
  % Inhibition GIFT: 0%
[2]; [21]
  % Inhibition GIFT: 60%
[2]; [22]
  % Inhibition GIFT: 85%
[2]; [23]
  % Inhibition GIFT: 30%
[2]; [24]
  % Inhibition GIFT: 0%
[2]; [25]
  % Inhibition GIFT: 20%
[2]; [26]
  % Inhibition GIFT: 35%
[2]; [27]
  % Inhibition GIFT: 65%
[2]; [28]
  % Inhibition GIFT: 35%
[2]; [29]
  % Inhibition GIFT: 35%
[2]; [30]
  % Inhibition GIFT: 20%
[2]; Herbicide No. 1 0.14 Kg/Ha POE + Biocide No. 1 in furrow, no antidote, 8 days after POE
  % Inhibition GIFT: 0%
[2]; Herbicide No. 1 0.14 Kg/Ha POE alone, 8 days after POE
  % Inhibition GIFT: 0%
[3]; [31]
  % Inhibition 5 DAP VELE: 0%
[3]; [32]
  % Inhibition 13 DAP VELE: 90%
[3]; [33]
  % Inhibition VELE: 70%
[3]; [34]
  % Inhibition 5 DAP VELE: 0%
[3]; [35]
  % Inhibition VELE: 65%
[3]; [36]
  % Inhibition VELE: 70%
[3]; […], observed 9 days later (Table 29)
  % Inhibition VELE: 90%
[3]; […], observed 9 days later (Table 30)
  % Inhibition VELE: 75%
[3]; [37]
  % Inhibition VELE: 80%
[3]; in vivo
  % Inhibition 5 DAP VELE: 10%
  % Inhibition 13 DAP VELE: 90%
  % Inhibition VELE: 75% and 65% and 80% and 70% and 85%

## N#CCOc1ccc(Cl)c2cccnc12 [compound 33]
[1]; Herbicide No. 6 0.14 Kg/Ha PPI
  % Inhibition GIFT: 70%
[1]; [4]
  % Inhibition GIFT: 0%
[1]; [5]
  % Inhibition GIFT: 0%
[1]; [6]
  % Inhibition GIFT: 10%
[1]; [7]
  % Inhibition GIFT: 35%
[1]; [8]
  % Inhibition GIFT: 0%
[1]; [9]
  % Inhibition GIFT: 45%
[1]; [10]
  % Inhibition GIFT: 80%
[1]; [11]
  % Inhibition GIFT: 45%
[1]; [12]
  % Inhibition GIFT: 30%
[1]; [13]
  % Inhibition GIFT: 15%
[1]; [14]
  % Inhibition GIFT: 25%
[1]; [15]
  % Inhibition GIFT: 25%
[1]; [16]
  % Inhibition GIFT: 15%
[1]; [17]
  % Inhibition GIFT: 40%
[2]; [18]
  % Inhibition GIFT: 0%
[2]; [19]
  % Inhibition GIFT: 0%
[2]; [20]
  % Inhibition GIFT: 0%
[2]; [21]
  % Inhibition GIFT: 65%
[2]; [22]
  % Inhibition GIFT: 80%
[2]; [23]
  % Inhibition GIFT: 25%
[2]; [24]
  % Inhibition GIFT: 0%
[2]; [25]
  % Inhibition GIFT: 0%
[2]; [26]
  % Inhibition GIFT: 30%
[2]; [27]
  % Inhibition GIFT: 65%
[2]; [28]
  % Inhibition GIFT: 35%
[2]; [29]
  % Inhibition GIFT: 30%
[2]; [30]
  % Inhibition GIFT: 25%
[3]; [31]
  % Inhibition 5 DAP VELE: 50%
[3]; [32]
  % Inhibition 13 DAP VELE: 95%
[3]; [33]
  % Inhibition VELE: 70%
[3]; [34]
  % Inhibition 5 DAP VELE: 30%
[3]; [35]
  % Inhibition VELE: 75%
[3]; [36]
  % Inhibition VELE: 70%
[3]; [37]
  % Inhibition VELE: 85%
[3]; in vivo
  % Inhibition 5 DAP VELE: 60%
  % Inhibition 13 DAP VELE: 90%

Reference: patent EP0565593B1, “REDUCING PESTICIDAL INTERACTIONS IN CROPS” (priority 1990, dated 1992)
